This is an account of results in patent publication US10660903B2, “Orodispersible dosage unit containing an estetrol component” (ESTETRA SPRL, priority 2015, dated 2020).

Each structure is given as a SMILES string.

Data set [1] can be described thus: Randomized, open-label, two-period, cross-over pharmacokinetic study, sublingual versus oral estetrol. The note with it: 10 mg estetrol; sublingual vs oral; healthy female volunteers. It counts as in vivo, human. On the procedure:
A randomized, open-label, two-period, cross-over, pharmacokinetic study is conducted to compare sublingual bioavailability of 10 mg estetrol administered in one 100 mg tablet with oral availability of estetrol contained in a 83 mg tablet containing 10 mg estetrol. These tablets are administered sublingually and orally to healthy female volunteers under fasting conditions.
Ten healthy female subjects are selected on the basis of the following criteria: age of 45-65 years (inclusive), nonsmokers or past smokers (at least 6 months before dosing), body-mass index (BMI)=18.5 to 30 kg/m^2 (inclusive at the time of the screening).
At the start of the first and the second period of the study, between 07:00 am and 07:28 am, 5 subjects receive a single dose of the sublingual formulation of estetrol by administering one estetrol tablet (tablet weight 100 mg; 10 mg estetrol) and 5 subjects receive a single oral dose of the oral estetrol formulation by administering one estetrol tablet (tablet weight 83 mg; 10 mg estetrol), ingested together with 200 ml water. […]
The estetrol concentration in the collected blood samples is determined by means of HPLC/MS/MS. The concentrations of glucuronided estetrol (D-ring) in the urine samples is also determined with the help of HPLC/MS/MS.

Data set [2] is described as follows: Particle size distribution by laser diffraction (Malvern Mastersizer Microplus). The data set is classed as physicochemical. The note with it: milled estetrol used in the tablets. On the procedure:
The particles size distribution of the estetrol particles, and of other particulate materials used in the present process, may suitably be determined by means of laser diffraction. The particle size distribution of the estetrol particles within the solid dosage unit can suitably be determined using spectroscopic techniques, e.g. Raman mapping.
Particle size distribution of estetrol monohydrate is performed using a MALVERN MASTERS IZER MICROPLUS laser particle size analyzer.
• Weigh 1 g of estetrol monohydrate and 1 g of sorbitan trioleate into a flask. • Add 1 litre of n-hexane and mix for at least 1 hour at room temperature • Filter through a 0.45 μm filter.
• Put 100 mg of sample in a 25 mL beaker. • Add some drops of dispersion medium. • Mix carefully with a glass rod to suspend well the powder. • Add 10 mL of dispersion medium. • Perform the analysis with the sample dispersion unit's speed at 3000-3500 rpm.
Particle size measurements are performed three times using the same dispersion. The final result is obtained by averaging the results of the three determinations.

The conditions of data set [3]: humans; cited from earlier work.
Another data set has as its system estrogen receptors. The note with it: in vitro; cited from earlier work.
The target of data set [4] is T1, sex hormone binding globulin (SHBG) (Homo sapiens, UniProt P04278).
T1 sequence (P04278 30-402): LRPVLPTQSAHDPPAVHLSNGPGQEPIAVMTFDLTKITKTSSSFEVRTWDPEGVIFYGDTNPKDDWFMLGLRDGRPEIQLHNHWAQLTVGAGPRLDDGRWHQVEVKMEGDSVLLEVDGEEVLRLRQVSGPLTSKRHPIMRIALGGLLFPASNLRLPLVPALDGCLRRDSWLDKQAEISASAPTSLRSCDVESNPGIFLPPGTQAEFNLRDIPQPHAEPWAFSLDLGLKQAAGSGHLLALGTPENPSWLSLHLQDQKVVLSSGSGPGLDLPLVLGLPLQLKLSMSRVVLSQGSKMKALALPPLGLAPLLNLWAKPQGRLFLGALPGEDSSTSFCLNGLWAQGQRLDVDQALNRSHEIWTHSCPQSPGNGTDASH
The note with it: cited from earlier work.

Another data set concerns production of SHBG. The note with it: in vitro; cited from earlier work.
Data set [5] concerns vagina, uterus, body weight, bone mass, bone strength, hot flushes, ovulation. The note with it: rat models; dose-dependent; cited from earlier work.
The next data set relates to DMBA mammary tumour. The note with it: extent and dose level similar to tamoxifen and to ovariectomy; cited from earlier work.
Data set [6] relates to human breast cancer cells. The note with it: in the presence of 17β-estradiol; cited from earlier work.

`C[C@]12CC[C@@H]3c4ccc(O)cc4CC[C@H]3[C@@H]1[C@@H](O)[C@@H](O)[C@@H]2O` [estetrol, 1,3,5 (10)-estratrien-3,15α,16α,17β-tetrol]: the “impact on a liver function parameter, sublingual versus oral estetrol” value in data set [1] is “less impact”. Besides, in data set [2], the “D (v;0.5) (volume median diameter)” value is recorded as “^1 D (v;0.5) = 15 μm”. Besides, in data set [3], the oral bioavailability result is “high and dose-proportional”; the terminal elimination half-life entry is “about 28 hours”. Also, in the data set with estrogen receptors, the “binding to the estrogen receptors, selectivity” value is recorded as “binds highly selective to the estrogen receptors with preference for the ERa form of the receptor”. The “binding to SHBG” value in data set [4] was “does not bind”. Moreover, the “stimulation of the production of SHBG” value with production of SHBG was “does not stimulate”. Further, the “estrogenic effects on vagina, uterus, body weight, bone mass, bone strength, hot flushes and ovulation” value in data set [5] is reported as “exhibited estrogenic effects”. Besides, in the data set with DMBA mammary tumour, the tumour development entry was “prevented tumour development”. Moreover, in [6], the anti-estrogenic effect entry is recorded as “anti-estrogenic effect”.
